We go through 13 molecules from patent US12440492B2, “Pharmaceutical compositions comprising AKT protein kinase inhibitors” (Genentech, Inc., priority 2016, dated 2025).

What all share (type): physicochemical
A short description of data set [1]: Shear cell testing with Ring Shear Tester RST-XS. The text has this: Similar to the classification used by Jenike (Dietmar Schulze, Pulver und Schüttgüter, 2009 Springer Verlag Berlin/DE), one can define flow behaviour based on the flow function constant (ffc) as follows:
The larger the flow function constant ffc, i.e., the smaller the ratio of the unconfined yield strength (σc) to the consolidation stress (σ1), the better a bulk solid's flow.

Data set [2] can be described thus: Bulk density, tapped density and Carr index. The settings on record: for Bulk density / Tapped density: monohydrochloride.
Data set [3] in a line: Solid state by X-ray powder diffraction. The note with it: * indicates absence of crystalline API; for Solid state / Polymorphy (X-Ray, XRPD): monohydrochloride. The text has this: Bragg's law describes the diffraction of crystalline material with the equation “2d·sin(theta)=n·lambda”, wherein “d” denotes perpendicular distance (in Angstroms) between pairs of adjacent planes in a crystal (“d-spacing”), “theta” denotes the Bragg angle, “lambda” denotes the wavelength and “n” is an integer. When Bragg's law is fulfilled, the reflected beams are in phase and interfere constructively so that Bragg diffraction peaks are observed in the X-ray diffraction pattern. At angles of incidence other than the Bragg angle, reflected beams are out of phase and destructive interference or cancellation occurs. […] The XRPD pattern of an amorphous material is further characterized by one or more amorphous halos.
The term “XRPD” denotes the analytical method of X-Ray Powder Diffraction. The repeatability of the angular values is in the range of 2Theta±0.2°, more particularly in the range of 2Theta±0.1°. The term “approximately” given in combination with an angular value denotes the variance which is in the range of 2Theta±0.2°, particularly in the range of 2Theta±0.1°. The relative XRPD peak intensity is dependent upon many factors such as structure factor, temperature factor, crystallinity, polarization factor, multiplicity, and Lorentz factor. Relative intensities may vary considerably from one measurement to another due to preferred orientation effects. According to USP 941 (US Pharmacopoeia, 37th Edition, General Chapter 941), relative intensities between two samples of the same material may vary considerably due to “preferred orientation” effects. Anisotropic materials adopting preferred orientation will lead to anisotropic distribution of properties such as modulus, strength, ductility, toughness, electrical conductivity, thermal expansion, etc., as described e.g. in Kocks U. F. et al. (Texture and Anisotropy: Preferred Orientations in Polycrystals and Their Effect on Materials Properties, Cambridge University Press, 2000). In XRPD but also Raman spectroscopy, preferred orientations cause a change in the intensity distribution. Preferred orientation effects are particularly pronounced with crystalline APIs of relatively large particle size.

Data set [4] is described as follows: Particle size distribution (d10, d50, d90) by laser diffraction. The source says: FIG. 6 illustrates particle size distribution of the material of Example 6C (Batch HQ00003) spray dried with two-feed nozzle as obtained by laser diffraction A bimodal particle size distribution is obvious. FIG. 9 illustrates particle size distribution of spray dried material with rotary wheel nozzle, i.e. of the material of batch BS1506SA03 of Example 13 (Table 20) obtained using a Malvern Mastersizer 2000 equipped with Hydro 2000S wet sample dispersion unit (Malvern Instruments Ltd, Malvern/UK). A monomodal particle size distribution is obvious. The terms “d50 value” (sometimes also referred to as “d(0.5)-value”) and “mass-median diameter” (or MMD) can be used interchangeably and denote the average particle size by mass, i.e. the average equivalent diameter of a particle, which is defined as the diameter where 50% (w) of the particles of the ensemble have a larger equivalent spherical diameter, and the other 50% (w) have a smaller equivalent spherical diameter. In analogy, the term “d10-value” denotes the particle diameter wherein 10% (w) of the particles of the ensemble have a smaller equivalent spherical diameter. In analogy, the term “d90-value” denotes the particle diameter wherein 90% (w) of the particles of the ensemble have a smaller equivalent spherical diameter.

[5] abbreviates: Pre-shear stress 1000 PA, 30 mL shear cell, monohydrochloride.
Setting [6] is: spray-dried amorphous ipatasertib monohydrochloride, rotary wheel atomizer.
Where [7] appears, read: spray dried amorphous ipatasertib monohydrochloride powder.

“And” between values parts separate entries of the source, which are not always exact repeats. Identical values can stand only once. Counter-ions that a name gives are not always drawn.

On to `CC(C)NC[C@@H](C(=O)N1CCN(c2ncnc3c2[C@H](C)C[C@H]3O)CC1)c1ccc(Cl)cc1` [BS1506SA01, ipatasertib monohydrochloride], for which, in data set [1] (setting [5]), the “Consolidation stress (σ1)” value came to 1725 PA and the “Flow Function Constant (ffc)” value was determined as 4.0. In data set [2] (setting [6]), this molecule came in with a Bulk density of 0.41 gcm^−3 and a Tapped density of 0.57 gcm^−3. For the same molecule, the “Polymorphy (X-Ray)” value in data set [3] is “amorphous*”. Further, in data set [4] (setting [6]), the “Particle size d10” value was found to be 11 μm, the “Particle size d50” value is recorded as 31 μm and the “Particle size d90” value stood at 64 μm.

For the molecule `CC(C)NC[C@@H](C(=O)N1CCN(c2ncnc3c2[C@H](C)C[C@H]3O)CC1)c1ccc(Cl)cc1` [BS1506SA02, ipatasertib monohydrochloride], in data set [1] (setting [5]), the “Consolidation stress (σ1)” value was 1701 PA and the “Flow Function Constant (ffc)” value was determined as 3.5. Also, in data set [2] (setting [6]), the Bulk density was 0.40 gcm^−3 and the Tapped density came to 0.52 gcm^−3. The “Polymorphy (X-Ray)” value in data set [3] is listed as “amorphous*”. In addition, in data set [4] (setting [6]), the “Particle size d10” value is recorded as 11 μm, the “Particle size d50” value came to 31 μm and the “Particle size d90” value is recorded as 64 μm.

Consider `CC(C)NC[C@@H](C(=O)N1CCN(c2ncnc3c2[C@H](C)C[C@H]3O)CC1)c1ccc(Cl)cc1` [BS1506SA03, ipatasertib monohydrochloride], for which, in data set [1] (setting [5]), the “Consolidation stress (σ1)” value worked out at 1709 PA and the “Flow Function Constant (ffc)” value turned out to be 2.9. In data set [2] (setting [6]), the Bulk density stood at 0.39 gcm^−3 and the Tapped density is 0.55 gcm^−3. Moreover, the “Polymorphy (X-Ray)” value in data set [3] was “amorphous*”. In addition, the “particle size distribution shape” value in data set [4] (laser diffraction, monohydrochloride) is reported as “monomodal”. In addition, in data set [4] (setting [6]), the “Particle size d10” value came to 12 μm, the “Particle size d50” value is recorded as 31 μm and the “Particle size d90” value amounted to 62 μm.

In data set [2] (setting [7]), `CC(C)NC[C@@H](C(=O)N1CCN(c2ncnc3c2[C@H](C)C[C@H]3O)CC1)c1ccc(Cl)cc1` [Composition 140210412, ipatasertib monohydrochloride] displayed a Bulk density of 0.47 gcm^−3 and a Tapped density of 0.60 gcm^−3. The “Solid state / Polymorphy (X-Ray, XRPD)” value in data set [3] is “amorphous*”. Besides, in data set [4] (setting [7]), the “Particle size d10” value is given as 13 μm, the “Particle size d50” value amounted to 46 μm and the “Particle size d90” value is 94 μm.

Turning to `CC(C)NC[C@@H](C(=O)N1CCN(c2ncnc3c2[C@H](C)C[C@H]3O)CC1)c1ccc(Cl)cc1` [Composition 140210413, ipatasertib monohydrochloride], in data set [2] (setting [7]), the Bulk density is reported as 0.45 gcm^−3 and the Tapped density is listed as 0.59 gcm^−3. In addition, the “Solid state / Polymorphy (X-Ray, XRPD)” value in data set [3] was “amorphous*”. For the same molecule, in data set [4] (setting [7]), the “Particle size d10” value turned out to be 10 μm, the “Particle size d50” value is 28 μm and the “Particle size d90” value is listed as 56 μm.

As for `CC(C)NC[C@@H](C(=O)N1CCN(c2ncnc3c2[C@H](C)C[C@H]3O)CC1)c1ccc(Cl)cc1` [Composition 140210414, ipatasertib monohydrochloride], in data set [2] (setting [7]), the Bulk density is on record as 0.48 gcm^−3 and the Tapped density is reported as 0.57 gcm^−3. Also, the “Solid state / Polymorphy (X-Ray, XRPD)” value in data set [3] is reported as “amorphous*”. Moreover, in data set [4] (setting [7]), the “Particle size d10” value was found to be 18 μm, the “Particle size d50” value was found to be 53 μm and the “Particle size d90” value is listed as 109 μm.

`CC(C)NC[C@@H](C(=O)N1CCN(c2ncnc3c2[C@H](C)C[C@H]3O)CC1)c1ccc(Cl)cc1` [Composition 141210421, ipatasertib monohydrochloride]: in data set [2] (setting [7]), the Bulk density was determined as 0.38 gcm^−3 and the Tapped density stood at 0.55 gcm^−3. The “Solid state / Polymorphy (X-Ray, XRPD)” value in data set [3] is listed as “amorph.*”. In addition, in data set [4] (setting [7]), the “Particle size d10” value is recorded as 10 μm, the “Particle size d50” value turned out to be 28 μm and the “Particle size d90” value was determined as 56 μm.

In data set [2] (setting [7]), `CC(C)NC[C@@H](C(=O)N1CCN(c2ncnc3c2[C@H](C)C[C@H]3O)CC1)c1ccc(Cl)cc1` [Composition 141210422, ipatasertib monohydrochloride] yielded a Bulk density of 0.37 gcm^−3 and a Tapped density of 0.54 gcm^−3. In addition, the “Solid state / Polymorphy (X-Ray, XRPD)” value in data set [3] is “amorph.*”. Further, in data set [4] (setting [7]), the “Particle size d10” value was 9.6 μm, the “Particle size d50” value worked out at 27 μm and the “Particle size d90” value was found to be 54 μm.

In data set [2] (setting [7]), `CC(C)NC[C@@H](C(=O)N1CCN(c2ncnc3c2[C@H](C)C[C@H]3O)CC1)c1ccc(Cl)cc1` [Composition 141210423, ipatasertib monohydrochloride] registered a Bulk density of 0.39 gcm^−3 and a Tapped density of 0.55 gcm^−3. For the same molecule, the “Solid state / Polymorphy (X-Ray, XRPD)” value in data set [3] is recorded as “amorph.*”. Further, in data set [4] (setting [7]), the “Particle size d10” value was found to be 10 μm, the “Particle size d50” value is reported as 28 μm and the “Particle size d90” value is on record as 56 μm.

In data set [2] (setting [7]), `CC(C)NC[C@@H](C(=O)N1CCN(c2ncnc3c2[C@H](C)C[C@H]3O)CC1)c1ccc(Cl)cc1` [Composition 141210424, ipatasertib monohydrochloride] registered a Bulk density of 0.37 gcm^−3 and a Tapped density of 0.54 gcm^−3. Moreover, in data set [3], the “Solid state / Polymorphy (X-Ray, XRPD)” value was “amorph.*”. For the same molecule, in data set [4] (setting [7]), the “Particle size d10” value was 9.5 μm, the “Particle size d50” value turned out to be 27 μm and the “Particle size d90” value is 54 μm.

In data set [2] (setting [7]), `CC(C)NC[C@@H](C(=O)N1CCN(c2ncnc3c2[C@H](C)C[C@H]3O)CC1)c1ccc(Cl)cc1` [Composition 141210425, ipatasertib monohydrochloride] registered a Bulk density of 0.39 gcm^−3 and a Tapped density of 0.54 gcm^−3. Moreover, the “Solid state / Polymorphy (X-Ray, XRPD)” value in data set [3] is listed as “amorph.*”. Further, in data set [4] (setting [7]), the “Particle size d10” value is listed as 11 μm, the “Particle size d50” value was 39 μm and the “Particle size d90” value worked out at 80 μm.

Turning to `CC(C)NC[C@@H](C(=O)N1CCN(c2ncnc3c2[C@H](C)C[C@H]3O)CC1)c1ccc(Cl)cc1` [Composition 141210426, ipatasertib monohydrochloride], in data set [2] (setting [7]), the Bulk density was determined as 0.24 gcm^−3 and the Tapped density was 0.37 gcm^−3. Also, the “Solid state / Polymorphy (X-Ray, XRPD)” value in data set [3] is on record as “amorph.*”. In data set [4] (setting [7]), the “Particle size d10” value amounted to 8.5 μm, the “Particle size d50” value stood at 21 μm and the “Particle size d90” value is given as 43 μm.

With `CC(C)NC[C@@H](C(=O)N1CCN(c2ncnc3c2[C@H](C)C[C@H]3O)CC1)c1ccc(Cl)cc1` [Example 6C′, ipatasertib monohydrochloride], in data set [1] (Pre-shear stress 1000 PA), the “Consolidation stress (σ1)” value is on record as 2118 PA, the “Flow Function Constant (ffc)” value is 1.08 and the tc worked out at 514 Pa. In data set [1] (Pre-shear stress 2000 PA), the “Consolidation stress (σ1)” value was determined as 4844 PA, the “Flow Function Constant (ffc)” value stood at 1.09 and the tc is 1095 Pa. In addition, in data set [1] (Pre-shear stress 4000 PA), the “Consolidation stress (σ1)” value is given as 9557 PA, the “Flow Function Constant (ffc)” value is 1.12 and the tc is recorded as 2041 Pa. Moreover, the ffc result in data set [1] (across all pre-shear stresses) is on record as “around 1.1”. Also, in data set [1] (shear cell testing), the flowability result is “very poor flowability”. In data set [2] (setting [7]), the “Carr Index” value is on record as 38%; the Bulk density was 0.262 gcm^−3 and 0.26 gcm^−3; the Tapped density was 0.423 gcm^−3 and 0.42 gcm^−3. In data set [4] (setting [7]), the “Particle size d10” value came to 0.8 μm, the “Particle size d50” value amounted to 3.0 μm and the “Particle size d90” value is 5.7 μm.
